pIC50: −log10 of the molar value. Where two headings read alike, the source gives them in different places.
Legend:
[1] = system: DU-145; assay: Inhibition of cell growth by counting cells, DU-145; format: cell-based, human; details: read-out: IC50 (molar) DU-145
Description: (§1) 1°.—Inhibition of Cell Growth by Counting Cells.
(§2) This form of the assay employs 24 well multidishes of 16 mm diameter (Bergeron, 1984; Schroeder, 1981). The tumor cell lines employed are: P-388 (ATCC CCL 46), suspension culture of a lymphoid neoplasm from a DBA/2 mouse; A-549 (ATCC CCL 185), monolayer culture of a human lung carcinoma; HT-29 (ATCC HTB-38), monolayer culture of a human colon carcinoma; MEL-28 (ATCC HTB-72), monolayer culture of a human melanoma and DU-145 (ATCC HTB-81), monolayer culture of a human prostate carcinoma.
(§3) Cells were maintained, in logarithmic phase of growth in Eagle's Minimum Essential Medium, with Earle's Balanced Salts, with non-essential amino acids, with 2.0 mM L-Glutamine, without sodium bicarbonate (EMEM/neaa), supplemented with 10% Fetal Calf Serum (FCS), 10^−2 M. sodium bicarbonate and 0.1 U/l penicillin G+0.1 g/l streptomycin sulfate. For the experiments, cells are harvested from subconfluent cultures using trypsin and resuspended in fresh medium before plating.
(§4) A-549, HT-29, MEL-28 and DU-145 cells were seeded into 16 mm diameter wells at 1×10^4 cells per well in 1 ml aliquots of EMEM 5% FCS containing different concentrations of the sample to be tested. A separate set of cultures without drug was seeded as control of growth, to ensure that cells remained in exponential phase of growth. All determinations are carrying out in duplicate. After three days of incubation at 37° C., 5% CO2 in a 98% humid atmosphere cells were stained with 0.1% crystal violet. An approximately IC50 was determined by comparing the growth in wells with drug to the growth in wells control.
(§5) For quantifying the activity, after the incubation time, cells are trypsinized and counted in a Coulter Counter ZM. All counts (net cells per well), represent the average of duplicate wells. % G, percent of growth relative to cultures without drug. The results of these assays are used to generate dose-response curves from which more precise IC50 values are determined (sample concentration which produces 50% cell growth inhibition).
(§6) Obtained results may predict the usefulness of a certain drug as a potential cancer treatment. For this technique, compounds which show IC50 values smaller than 1 μg/ml are selected to continue with further studies. IC50's data allow to predict that not only could a drug be cystostatic, but also it could have a potential in terms of tumor reduction.

[2] = system: A-549; assay: Inhibition of cell growth by counting cells, A-549; format: cell-based, human; details: read-out: IC50 (molar) A-549
How it was run: (§7)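 1×10^4 cells/well, EMEM 5% FCS + test sample at several concs, duplicates; 3 d, 37° C, 5% CO2, humidified. Trypsinize, Coulter count; % growth vs untreated wells; IC50 from dose-response curve.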

[3] = system: P-388; assay: Inhibition of cell growth by counting cells, P-388; format: cell-based, mouse; details: read-out: IC50 (molar) P-388
Description: as §1, §2, §3
P-388 cells were seeded into 16 mm diameter wells at 1×10^4 cells per well in 1 ml aliquots of EMEM 5% FCS containing different concentrations of the sample to be tested. A separate set of cultures without drug was seeded as control of growth, to ensure that cells remained in exponential phase of growth. All determinations are carrying out in duplicate.
as §5, §6

[4] = system: HT-29; assay: Inhibition of cell growth by counting cells, HT-29; format: cell-based, human; details: read-out: IC50 (molar) HT-29
How it was run: as §7

[5] = system: MEL-28; assay: Inhibition of cell growth by counting cells, MEL-28; format: cell-based, human; details: read-out: IC50 (molar) MEL-28
Description: as §1, §2, §3, §4, §5, §6

[6] = Homo sapiens, DU-145, 72 h, three days of incubation
[7] = Homo sapiens, A549, 72 h, three days of incubation
[8] = Mus musculus, P388, 72 h, three days of incubation
[9] = Homo sapiens, HT-29, 72 h, three days of incubation
[10] = Homo sapiens, SK-MEL-28, 72 h, three days of incubation

Compound	pIC50 [1, 6]	pIC50 [2, 7]	pIC50 [3, 8]	pIC50 [4, 9]	pIC50 [5, 10]	pIC50 ([1]; Homo sapiens, DU-145, 72 h)	further results
CCCCCCCCCCCCCCCC(=O)Oc1cc2c(cc1OC)[C@@]1(CS[C@@H]3c4c(OC(C)=O)c(C)c5c(c4[C@H](COC1=O)N1C3[C@H]3c4c(cc(C)c(OC)c4OC(=O)CCCCCCCCCCCCCCC)C[C@@H]([C@@H]1C#N)N3C)OCO5)NCC2 (stereo partly shown) [Compound 17]	7.10	7.10	7.10	7.10	7.10	–	–
C=CCOC(=O)NC(CSCC1c2ccccc2-c2ccccc21)C(=O)Oc1cc2c(cc1OC)[C@@]1(CS[C@@H]3c4c(OC(C)=O)c(C)c5c(c4[C@H](COC1=O)N1C3[C@H]3c4c(cc(C)c(OC)c4O)C[C@@H]([C@@H]1C#N)N3C)OCO5)NCC2 (stereo partly shown) [Compound 18]	9.36	9.36	9.36	9.36	9.36	–	–
COc1cc2c(cc1OC(=O)CCCCC1SCC3NC(=O)NC31)CCNC21CSC2c3c(OC(C)=O)c(C)c4c(c3C(COC1=O)N1C(C#N)C3Cc5cc(C)c(OC)c(O)c5C(C21)N3C)OCO4 (stereo not shown) [Compound 19]	–	–	–	–	–	–	pIC50 ([1]; three days of incubation): 9.30; pIC50 ([2]; three days of incubation): 9.30; pIC50 ([3]; three days of incubation): 9.30; pIC50 ([4]; three days of incubation): 9.30; pIC50 ([5]; three days of incubation): 9.30
COc1cc2c(cc1OC(=O)CCCCC1SCC3NC(=O)NC31)CCNC21CSC2c3c(OC(C)=O)c(C)c4c(c3C(COC1=O)N1C(C#N)C3Cc5cc(C)c(OC)c(OC(=O)CCCCC6SCC7NC(=O)NC76)c5C(C21)N3C)OCO4 (stereo not shown) [Compound 20]	–	–	–	–	–	–	pIC50 ([1]; three days of incubation): 8.09; pIC50 ([2]; three days of incubation): 8.09; pIC50 ([3]; three days of incubation): 8.09; pIC50 ([4]; three days of incubation): 8.09; pIC50 ([5]; three days of incubation): 8.09
COc1cc2c(cc1OC(=O)OCc1ccccc1)CCN[C@]21CS[C@@H]2c3c(OC(C)=O)c(C)c4c(c3[C@H](COC1=O)N1C2[C@H]2c3c(cc(C)c(OC)c3O)C[C@@H]([C@@H]1C#N)N2C)OCO4 (stereo partly shown) [Compound 27]	9.95	9.95	9.95	9.95	9.95	–	–
COc1cc2c(cc1OC(=O)OCc1ccccc1)CCN[C@]21CS[C@@H]2c3c(OC(C)=O)c(C)c4c(c3[C@H](COC1=O)N1C2[C@H]2c3c(cc(C)c(OC)c3OC(=O)OCc3ccccc3)C[C@@H]([C@@H]1C#N)N2C)OCO4 (stereo partly shown) [Compound 28]	8.02	8.02	8.02	8.02	8.02	–	–
CCOc1cc2c(cc1OC)[C@@]1(CS[C@@H]3c4c(OC(C)=O)c(C)c5c(c4[C@H](COC1=O)N1C3[C@H]3c4c(cc(C)c(OC)c4OCC)C[C@@H]([C@@H]1C#N)N3C)OCO5)NCC2 (stereo partly shown) [Compound 38]	–	7.92	7.92	7.92	7.92	7.92	–
CCCOc1cc2c(cc1OC)[C@@]1(CS[C@@H]3c4c(OC(C)=O)c(C)c5c(c4[C@H](COC1=O)N1C3[C@H]3c4c(cc(C)c(OC)c4OCCC)C[C@@H]([C@@H]1C#N)N3C)OCO5)NCC2 (stereo partly shown) [Compound 40]	–	5.93	5.93	5.93	5.93	5.93	–
C=CCOc1cc2c(cc1OC)[C@@]1(CS[C@@H]3c4c(OC(C)=O)c(C)c5c(c4[C@H](COC1=O)N1C3[C@H]3c4c(cc(C)c(OC)c4O)C[C@@H]([C@@H]1C#N)N3C)OCO5)NCC2 (stereo partly shown) [Compound 41]	–	8.91	8.91	8.91	8.91	8.91	–
C=CCOc1cc2c(cc1OC)[C@@]1(CS[C@@H]3c4c(OC(C)=O)c(C)c5c(c4[C@H](COC1=O)N1C3[C@H]3c4c(cc(C)c(OC)c4OCC=C)C[C@@H]([C@@H]1C#N)N3C)OCO5)NCC2 (stereo partly shown) [Compound 42]	–	7.93	7.93	7.93	7.93	7.93	–
COc1cc2c(cc1OCc1ccccc1)CCN[C@]21CS[C@@H]2c3c(OC(C)=O)c(C)c4c(c3[C@H](COC1=O)N1C2[C@H]2c3c(cc(C)c(OC)c3O)C[C@@H]([C@@H]1C#N)N2C)OCO4 (stereo partly shown) [Compound 43]	–	–	–	–	–	8.94	pIC50 ([2]; Homo sapiens, A549, 72 h): 8.94; pIC50 ([3]; Mus musculus, P388, 72 h): 8.94; pIC50 ([4]; Homo sapiens, HT-29, 72 h): 8.94; pIC50 ([5]; Homo sapiens, SK-MEL-28, 72 h): 8.94
COc1cc2c(cc1OCc1ccccc1)CCN[C@]21CS[C@@H]2c3c(OC(C)=O)c(C)c4c(c3[C@H](COC1=O)N1C2[C@H]2c3c(cc(C)c(OC)c3OCc3ccccc3)C[C@@H]([C@@H]1C#N)N2C)OCO4 (stereo partly shown) [Compound 44]	–	–	–	–	–	6.98	pIC50 ([2]; Homo sapiens, A549, 72 h): 6.98; pIC50 ([3]; Mus musculus, P388, 72 h): 6.98; pIC50 ([4]; Homo sapiens, HT-29, 72 h): 6.98; pIC50 ([5]; Homo sapiens, SK-MEL-28, 72 h): 6.98
COc1cc2c(cc1O)CCN[C@]21CS[C@@H]2c3c(OC(C)=O)c(C)c4c(c3[C@H](COC1=O)N1C2[C@H]2c3c(cc(C)c(OC)c3OC(=O)OC(C)(C)C)C[C@@H]([C@@H]1C#N)N2C)OCO4 (stereo partly shown) [Compound 47]	8.94	8.94	8.94	8.94	8.94	–	–
COc1cc2c(cc1OC(=O)/C=C/c1ccccc1)CCN[C@]21CS[C@@H]2c3c(OC(C)=O)c(C)c4c(c3[C@H](COC1=O)N1C2[C@H]2c3c(cc(C)c(OC)c3OC(=O)OC(C)(C)C)C[C@@H]([C@@H]1C#N)N2C)OCO4 (stereo partly shown) [Compound 49]	–	9.00	9.00	9.00	9.00	9.00	–
C=CCOc1cc2c(cc1OC)[C@@]1(CS[C@@H]3c4c(O)c(C)c5c(c4[C@H](COC1=O)N1C3[C@H]3c4c(cc(C)c(OC)c4OCC=C)C[C@@H]([C@@H]1C#N)N3C)OCO5)NCC2 (stereo partly shown) [Compound 50]	6.91	6.91	6.91	6.91	6.91	–	–
CCCC(=O)Oc1cc2c(cc1OC)[C@@]1(CS[C@@H]3c4c(OC(C)=O)c(C)c5c(c4[C@H](COC1=O)N1C3[C@H]3c4c(cc(C)c(OC)c4O)C[C@@H]([C@@H]1O)N3C)OCO5)NCC2 (stereo partly shown) [Compound 58]	9.92	9.92	9.92	9.92	9.92	–	–
CCCCCCCCCCCCCCCC(=O)Oc1cc2c(cc1OC)[C@@]1(CS[C@@H]3c4c(OC(C)=O)c(C)c5c(c4[C@H](COC1=O)N1C3[C@H]3c4c(cc(C)c(OC)c4O)C[C@@H]([C@@H]1O)N3C)OCO5)NCC2 (stereo partly shown) [Compound 60]	8.30	8.30	8.00	8.30	8.30	–	–
C=CCOC(=O)NC(CSCC1c2ccccc2-c2ccccc21)C(=O)Oc1cc2c(cc1OC)[C@@]1(CS[C@@H]3c4c(OC(C)=O)c(C)c5c(c4[C@H](COC1=O)N1C3[C@H]3c4c(cc(C)c(OC)c4O)C[C@@H]([C@@H]1O)N3C)OCO5)NCC2 (stereo partly shown) [Compound 62]	9.05	9.05	9.05	9.05	9.05	–	–
COc1cc2c(cc1OC(=O)OC(C)(C)C)CCN[C@]21CS[C@@H]2c3c(OC(C)=O)c(C)c4c(c3[C@H](COC1=O)N1C2[C@H]2c3c(cc(C)c(OC)c3O)C[C@@H]([C@@H]1O)N2C)OCO4 (stereo partly shown) [Compound 66]	9.94	9.94	9.94	9.94	9.94	–	–
CCCOc1cc2c(cc1OC)[C@@]1(CS[C@@H]3c4c(OC(C)=O)c(C)c5c(c4[C@H](COC1=O)N1C3[C@H]3c4c(cc(C)c(OC)c4O)C[C@@H]([C@@H]1O)N3C)OCO5)NCC2 (stereo partly shown) [Compound 69]	9.21	9.21	9.90	9.21	9.21	–	–
